Experimental data as given in ChEMBL document CHEMBL4152347 (J Med Chem, 2018).

What was measured:
in vitro [1] = conditions: human, MT2 cells
Description: Cytotoxicity against human MT2 cells assessed as reduction in cell viability

in vitro [2] = conditions: human, liver microsomes
Description: Half life in human liver microsomes at 0.5 uM after 1 hr in presence of NADPH by LC-MS/MS analysis

[3] = system: Human immunodeficiency virus 1; test: microbe, parasite or virus in culture; conditions: Human immunodeficiency virus 1, MT2
in vitro [4] = conditions: rat, liver microsomes
Description: Half life in rat liver microsomes at 0.5 uM after 1 hr in presence of NADPH by LC-MS/MS analysis

[5] = system: Human immunodeficiency virus 1; test: microbe, parasite or virus in culture; conditions: Human immunodeficiency virus 1, MT2; remark: listed apart in the source
Description: Antiviral activity against HIV1 expressing gag delta V370 mutant infected in human MT2 cells after 4 to 5 days by dual luciferase reporter gene assay

in vivo [6] = conditions: Sprague-Dawley, rat, po, 5 mg/kg
[7] = system: Human immunodeficiency virus 1; test: microbe, parasite or virus in culture; conditions: Human immunodeficiency virus 1, MT2; remark: listed apart in the source
Description: Antiviral activity against wild type HIV1 infected in human MT2 cells after 4 to 5 days by dual luciferase reporter gene assay

[8] = system: Human immunodeficiency virus 1; test: microbe, parasite or virus in culture; conditions: Human immunodeficiency virus 1, MT2; remark: listed apart in the source
Description: Antiviral activity against wild type HIV1 infected in human MT2 cells after 4 to 5 days in presence of 10% FBS and 40% human serum albumin by dual luciferase reporter gene assay

in vivo [9] = conditions: Sprague-Dawley, rat, po, 5 mg/kg; remark: listed apart in the source
physchem = conditions: aqueous
Description: Aqueous solubility of the compound

Row | SMILES | CC50 (in vitro [1]) [nM] | half-life at 1 h, 0.5 µM (in vitro [2]) [h] | EC50 [3] [nM] | half-life at 1 h, 0.5 µM (in vitro [4]) [h] | EC50 [5] [nM] | AUC(0-t) at 24 h (in vivo [6]) [µM·h] | EC50 [7] [nM] | EC50 [8] [nM] | AUC(0-t) at 6 h (in vivo [9]) [µM·h] | solubility (physchem) [µg/mL]
1 | C=C(C)[C@@H]1CC[C@]2(NCCN3C[C@@H]4C[C@H]3CN4S(C)(=O)=O)CC[C@]3(C)[C@H](CC[C@@H]4[C@@]5(C)CC=C(c6ccc(C(=O)O)cc6)C(C)(C)[C@@H]5CC[C@]43C)[C@@H]12 | 9300 | > 2 | 2.9 | > 2 | 9.3 | 7.08 | 2.7 |  |  | 
2 | C=C(C)[C@@H]1CC[C@]2(C(=O)NCCN3CCS(=O)(=O)CC3)CC[C@]3(C)[C@H](CC[C@@H]4[C@@]5(C)CC=C(c6ccc(C(=O)O)cc6)C(C)(C)[C@@H]5CC[C@]43C)[C@@H]12 | 7900 | > 2 | 5.5 | > 2 | 60.5 | 2.47 | 2.4 |  |  | 
3 | C=C(C)[C@@H]1CC[C@]2(NCCN3CCCCS3(=O)=O)CC[C@]3(C)[C@H](CC[C@@H]4[C@@]5(C)CC=C(c6ccc(C(=O)O)cc6)C(C)(C)[C@@H]5CC[C@]43C)[C@@H]12 | 9530 | > 2 | 2.5 | > 2 | 36.8 | 4.24 | 4 |  |  | 
4 | C=C(C)[C@@H]1CC[C@]2(NC(=O)CCN3CCS(=O)(=O)CC3)CC[C@]3(C)[C@H](CC[C@@H]4[C@@]5(C)CC=C(c6ccc(C(=O)O)cc6)C(C)(C)[C@@H]5CC[C@]43C)[C@@H]12 | 16300 | > 2 | 11.2 | > 2 | 101 |  | 6.8 |  |  | 
5 | C=C(C)[C@@H]1CC[C@]2(NCCN3CCN(S(=O)(=O)CC)CC3)CC[C@]3(C)[C@H](CC[C@@H]4[C@@]5(C)CC=C(c6ccc(C(=O)O)cc6)C(C)(C)[C@@H]5CC[C@]43C)[C@@H]12 | 13400 | > 2 | 10.2 | > 2 | 19.6 |  | 3.7 |  |  | 
6 | C=C(C)[C@@H]1CC[C@]2(NCCC3CCS(=O)(=O)CC3)CC[C@]3(C)[C@H](CC[C@@H]4[C@@]5(C)CC=C(c6ccc(C(=O)O)cc6)C(C)(C)[C@@H]5CC[C@]43C)[C@@H]12 | 4550 | > 2 |  | > 2 |  |  | 3.7 | 37.5 |  | 
7 | C=C(C)[C@@H]1CC[C@]2(NC(=O)CN3CCS(=O)(=O)CC3)CC[C@]3(C)[C@H](CC[C@@H]4[C@@]5(C)CC=C(c6ccc(C(=O)O)cc6)C(C)(C)[C@@H]5CC[C@]43C)[C@@H]12 | 9900 | > 2 | 3.5 | > 2 | 18.9 |  | 2.1 |  | 8.74 | 
8 | C=C(C)[C@@H]1CC[C@]2(NCCN3CCC4(C3)CN(S(C)(=O)=O)C4)CC[C@]3(C)[C@H](CC[C@@H]4[C@@]5(C)CC=C(c6ccc(C(=O)O)cc6)C(C)(C)[C@@H]5CC[C@]43C)[C@@H]12 | 11000 | > 2 |  | > 2 | 11.4 |  | 1.7 | 24.5 |  | 
9 | C=C(C)[C@@H]1CC[C@]2(NC(=O)C(C)N3CCS(=O)(=O)CC3)CC[C@]3(C)[C@H](CC[C@@H]4[C@@]5(C)CC=C(c6ccc(C(=O)O)cc6)C(C)(C)[C@@H]5CC[C@]43C)[C@@H]12 (stereo not given in full) | > 10000 | > 2 | 5 | > 2 | 123 |  | 1.8 |  |  | 
10 | C=C(C)[C@@H]1CC[C@]2(NCCCN3CCS(=O)(=O)CC3)CC[C@]3(C)[C@H](CC[C@@H]4[C@@]5(C)CC=C(c6ccc(C(=O)O)cc6)C(C)(C)[C@@H]5CC[C@]43C)[C@@H]12 | 15800 | > 2 | 7.5 | > 2 | 37.3 | 9.61 | 3.5 | 23.6 | 9.36 | 
11 | C=C(C)[C@@H]1CC[C@]2(C(=O)NCCCN3CCS(=O)(=O)CC3)CC[C@]3(C)[C@H](CC[C@@H]4[C@@]5(C)CC=C(c6ccc(C(=O)O)cc6)C(C)(C)[C@@H]5CC[C@]43C)[C@@H]12 | 10600 | > 2 | 1.4 | > 2 | 42.8 |  | 2.1 |  | 1.28 | 
12 | C=C(C)[C@@H]1CC[C@]2(C(=O)NCCC(=O)O)CC[C@]3(C)[C@H](CC[C@@H]4[C@@]5(C)CC=C(c6ccc(C(=O)O)cc6)C(C)(C)[C@@H]5CC[C@]43C)[C@@H]12 |  | > 2 |  | > 2 |  | 79.3 |  |  |  | 
13 | C=C(C)[C@@H]1CC[C@]2(NCCN3CCN(S(C)(=O)=O)CC3)CC[C@]3(C)[C@H](CC[C@@H]4[C@@]5(C)CC=C(c6ccc(C(=O)O)cc6)C(C)(C)[C@@H]5CC[C@]43C)[C@@H]12 | 10700 | > 2 | 5.2 | > 2 | 27.2 | 28.6 | 3.3 | 26.1 |  | < 1
14 | C=C(C)[C@@H]1CC[C@]2(NCCN3CC4C(C3)C4NS(C)(=O)=O)CC[C@]3(C)[C@H](CC[C@@H]4[C@@]5(C)CC=C(c6ccc(C(=O)O)cc6)C(C)(C)[C@@H]5CC[C@]43C)[C@@H]12 (stereo not given in full) | 15200 | > 2 |  | > 2 | 18 |  | 2.8 | 21.3 |  | 
15 | C=C(C)[C@@H]1CC[C@]2(NC(=O)OCCN3CCS(=O)(=O)CC3)CC[C@]3(C)[C@H](CC[C@@H]4[C@@]5(C)CC=C(c6ccc(C(=O)O)cc6)C(C)(C)[C@@H]5CC[C@]43C)[C@@H]12 | 9900 | > 2 | 10.7 | > 2 | 93.9 | 4.97 | 4.6 |  |  | 
16 | C=C(C)[C@@H]1CC[C@]2(NCCN3CCS(=N)(=O)CC3)CC[C@]3(C)[C@H](CC[C@@H]4[C@@]5(C)CC=C(c6ccc(C(=O)O)cc6)C(C)(C)[C@@H]5CC[C@]43C)[C@@H]12 | 14000 | > 2 | 1.5 | > 2 | 7.5 | 20.7 | 1.1 |  |  | < 1
17 | C=C(C)[C@@H]1CC[C@]2(NCCNC3CCS(=O)(=O)C3)CC[C@]3(C)[C@H](CC[C@@H]4[C@@]5(C)CC=C(c6ccc(C(=O)O)cc6)C(C)(C)[C@@H]5CC[C@]43C)[C@@H]12 (stereo not given in full) | 11100 | > 2 | 3.7 | > 2 | 11.6 |  | 2.2 | 15.9 |  | 
18 | C=C(C)[C@@H]1CC[C@]2(NC(=O)C(C(C)C)N3CCS(=O)(=O)CC3)CC[C@]3(C)[C@H](CC[C@@H]4[C@@]5(C)CC=C(c6ccc(C(=O)O)cc6)C(C)(C)[C@@H]5CC[C@]43C)[C@@H]12 (stereo not given in full) | 23500 | > 2 | 7.1 | > 2 | 727 |  | 3.9 |  |  | 
19 | C=C(C)[C@@H]1CC[C@]2(NCCNC3CCN(S(C)(=O)=O)C3)CC[C@]3(C)[C@H](CC[C@@H]4[C@@]5(C)CC=C(c6ccc(C(=O)O)cc6)C(C)(C)[C@@H]5CC[C@]43C)[C@@H]12 (stereo not given in full) | 10700 | > 2 |  | > 2 |  |  | 1.9 | 13.7 |  | 
20 | C=C(C)[C@@H]1CC[C@]2(NCCO)CC[C@]3(C)[C@H](CC[C@@H]4[C@@]5(C)CC=C(c6ccc(C(=O)O)cc6)C(C)(C)[C@@H]5CC[C@]43C)[C@@H]12 | 8480 | > 2 | 9.9 | > 2 | 66 |  |  |  | 4.98 | 
21 | C=C(C)[C@@H]1CC[C@]2(NC(=O)NCCN3CCS(=O)(=O)CC3)CC[C@]3(C)[C@H](CC[C@@H]4[C@@]5(C)CC=C(c6ccc(C(=O)O)cc6)C(C)(C)[C@@H]5CC[C@]43C)[C@@H]12 | 17600 | > 2 | 4.9 | > 2 | 63.5 |  | 5.9 |  |  | 
22 | C=C(C)[C@@H]1CC[C@]2(NCCN3CC4(C3)CN(S(C)(=O)=O)C4)CC[C@]3(C)[C@H](CC[C@@H]4[C@@]5(C)CC=C(c6ccc(C(=O)O)cc6)C(C)(C)[C@@H]5CC[C@]43C)[C@@H]12 | 12000 | > 2 |  | > 2 | 13.3 |  | 1.6 | 7.4 |  | 
23 | C=C(C)[C@@H]1CC[C@]2(NCCN3CCN(S(=O)(=O)C(C)C)CC3)CC[C@]3(C)[C@H](CC[C@@H]4[C@@]5(C)CC=C(c6ccc(C(=O)O)cc6)C(C)(C)[C@@H]5CC[C@]43C)[C@@H]12 | 11900 | > 2 | 9.9 | > 2 | 64.2 |  | 5.2 |  |  | 
24 | C=C(C)[C@@H]1CC[C@]2(NCCN3CCC(S(C)(=O)=O)CC3)CC[C@]3(C)[C@H](CC[C@@H]4[C@@]5(C)CC=C(c6ccc(C(=O)O)cc6)C(C)(C)[C@@H]5CC[C@]43C)[C@@H]12 | 13700 | > 2 | 2.7 | > 2 | 12 |  | 1.8 | 6.1 |  | 
